{"source": "ChEMBL document CHEMBL1148532", "about": "“Role of Tyr(356(7.43)) and Ser(190(4.57)) in antagonist binding in the rat beta1-adrenergic receptor” (J Med Chem, 2006)", "key": {"[1]": {"target": "Beta-1 adrenergic receptor (Rattus norvegicus, UniProt P18090, Y356F)", "sequence (P18090 whole entry Y356F)": "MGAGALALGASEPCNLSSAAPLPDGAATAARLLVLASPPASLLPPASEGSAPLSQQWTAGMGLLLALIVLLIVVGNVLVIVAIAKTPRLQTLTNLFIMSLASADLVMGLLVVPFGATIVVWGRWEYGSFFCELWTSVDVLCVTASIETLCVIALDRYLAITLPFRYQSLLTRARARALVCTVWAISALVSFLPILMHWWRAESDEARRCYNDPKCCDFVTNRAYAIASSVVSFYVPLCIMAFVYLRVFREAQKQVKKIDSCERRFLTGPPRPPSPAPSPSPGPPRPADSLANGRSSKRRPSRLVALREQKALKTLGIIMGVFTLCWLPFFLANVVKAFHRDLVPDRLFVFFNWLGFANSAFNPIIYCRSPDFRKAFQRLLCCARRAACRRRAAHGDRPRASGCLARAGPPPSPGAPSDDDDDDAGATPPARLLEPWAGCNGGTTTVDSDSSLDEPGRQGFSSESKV"}, "[2]": {"target": "Beta-1 adrenergic receptor (Rattus norvegicus, UniProt P18090)", "sequence (P18090 whole entry)": "as the sequence (P18090 whole entry Y356F) above, with F356Y counted along it", "description": "Antagonist activity at rat wild type beta-1 adrenergic receptor expressed in CHO cells"}, "[3]": {"target": "Beta-1 adrenergic receptor (Rattus norvegicus, UniProt P18090, Y356A)", "sequence (P18090 whole entry Y356A)": "as the sequence (P18090 whole entry Y356F) above, with F356A counted along it"}, "[4]": {"target": "Beta-1 adrenergic receptor (Rattus norvegicus, UniProt P18090, W134A)", "sequence (P18090 whole entry W134A)": "as the sequence (P18090 whole entry Y356F) above, with W134A, F356Y counted along it"}, "[5]": {"target": "Beta-1 adrenergic receptor (Rattus norvegicus, UniProt P18090, S190A)", "sequence (P18090 whole entry S190A)": "as the sequence (P18090 whole entry Y356F) above, with S190A, F356Y counted along it"}}, "data": [{"compound": "CCOCCOc1ccc(OC[C@@H](O)CNCCc2ccc(OC)c(OC)c2)cc1", "values": [{"measurement": "Ki", "setting": "[1]", "value": 100, "unit": "nM"}, {"measurement": "Ki", "setting": "[2]", "value": 50.1, "unit": "nM"}, {"measurement": "Ki", "setting": "[3]", "value": 794, "unit": "nM"}, {"measurement": "Ki", "setting": "[4]", "value": 79.4, "unit": "nM"}, {"measurement": "Ki", "setting": "[5]", "value": 12600, "unit": "nM"}]}, {"compound": "CC(C)(C)NCC(O)COc1cccc2[nH]c(C#N)c(I)c12", "note": "(stereo not given)", "values": [{"measurement": "Kd", "setting": "[1]", "value": 0.0794, "unit": "nM"}, {"measurement": "Kd", "setting": "[2]", "value": 0.0631, "unit": "nM"}, {"measurement": "Kd", "setting": "[3]", "value": 0.316, "unit": "nM"}, {"measurement": "Kd", "setting": "[4]", "value": 0.0631, "unit": "nM"}, {"measurement": "Kd", "setting": "[5]", "value": 0.0631, "unit": "nM"}]}, {"compound": "Cn1cc(C(F)(F)F)nc1-c1ccc(OCC(O)CNCCOc2ccc(O)c(C(N)=O)c2)cc1", "note": "(stereo not given) [CGP-20712A]", "values": [{"measurement": "Ki", "setting": "[1]", "value": 2, "unit": "nM"}, {"measurement": "Ki", "setting": "[2]", "value": 1.26, "unit": "nM"}, {"measurement": "Ki", "setting": "[3]", "value": 10000, "unit": "nM"}, {"measurement": "Ki", "setting": "[4]", "value": 7.94, "unit": "nM"}, {"measurement": "Ki", "setting": "[5]", "value": 794, "unit": "nM"}]}, {"compound": "CC(C)(C)NCC(O)COc1cccc2[nH]c(C#N)cc12", "note": "(stereo not given) [CYANOPINDOLOL]", "values": [{"measurement": "Ki", "setting": "[1]", "value": 0.0398, "unit": "nM"}, {"measurement": "Ki", "setting": "[2]", "value": 0.0501, "unit": "nM"}, {"measurement": "Ki", "setting": "[3]", "value": 316, "unit": "nM"}, {"measurement": "Ki", "setting": "[4]", "value": 0.126, "unit": "nM"}, {"measurement": "Ki", "setting": "[5]", "value": 0.316, "unit": "nM"}]}, {"compound": "N#Cc1cc(OCCOCC2CC2)ccc1OCC(O)CNCCNC(=O)Nc1ccc(O)cc1", "note": "(stereo not given) [LK-204545]", "values": [{"measurement": "Ki", "setting": "[1]", "value": 79.4, "unit": "nM"}, {"measurement": "Ki", "setting": "[2]", "value": 7.94, "unit": "nM"}, {"measurement": "Ki", "setting": "[3]", "value": 79400, "unit": "nM"}, {"measurement": "Ki", "setting": "[4]", "value": 63.1, "unit": "nM"}, {"measurement": "Ki", "setting": "[5]", "value": 100, "unit": "nM"}]}]}
